{"source": "patent US12139498B1", "about": "“Positive allosteric modulators of the muscarinic acetylcholine receptor M4” (Vanderbilt University, priority 2023, dated 2024)", "key": {"male Sprague-Dawley rats": {"test_system": "male Sprague-Dawley rats", "assay": "Amphetamine-induced hyperlocomotion in rats", "details": "100 mg/kg i.p., amphetamine 0.25 mg/kg s.c., p<0.001"}, "human muscarinic 2": {"target": "T1, human muscarinic 2 (Homo sapiens, UniProt P08172)", "T1 sequence (P08172 1-466)": "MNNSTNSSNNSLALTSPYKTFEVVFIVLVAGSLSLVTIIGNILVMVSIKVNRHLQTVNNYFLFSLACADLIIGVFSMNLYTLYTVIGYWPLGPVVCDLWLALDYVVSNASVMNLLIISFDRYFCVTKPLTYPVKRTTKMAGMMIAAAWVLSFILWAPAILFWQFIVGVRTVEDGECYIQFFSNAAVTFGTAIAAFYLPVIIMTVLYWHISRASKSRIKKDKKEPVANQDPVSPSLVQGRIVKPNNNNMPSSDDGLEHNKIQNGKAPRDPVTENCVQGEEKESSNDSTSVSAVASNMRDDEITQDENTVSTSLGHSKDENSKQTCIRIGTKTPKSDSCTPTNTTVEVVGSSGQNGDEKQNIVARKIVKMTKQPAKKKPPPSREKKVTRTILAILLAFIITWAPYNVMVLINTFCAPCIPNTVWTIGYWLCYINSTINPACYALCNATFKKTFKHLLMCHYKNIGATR", "assay": "Eurofins LeadProfilingScreen, human muscarinic 2 (binding)", "details": "10 μM (binding)", "description": "Compound 70 was tested using Eurofins LeadProfilingScreen®, which detects potential off-target activity and determines relative selectivity. The screen includes 68 primary molecular targets, including several CNS targets recommended by the EMEA (European Medicines Evaluation Agency) to evaluate drug dependence potential."}, "[1]": {"assay": "Fraction unbound in dog plasma", "format": "in vitro ADME", "details": "read-out: Dog Fu (plasma)", "description": "(§1) Compound 70 was tested in several in in vitro assays to investigate both metabolism and pharmacokinetics. These assays may be performed according to known methods as generally described in the following references: Conde-Ceide et al. ACS Med. Chem. Lett. 2015, 6, 716-720; Morris et al. J. Med. Chem. 2014, 57, 10192-10197; and Bubser et al. ACS Chem. Neurosci. 2014, 5, 920-942."}, "[2]": {"assay": "Human intrinsic clearance", "format": "in vitro ADME", "description": "as §1"}, "[3]": {"assay": "Fraction unbound in human plasma", "format": "in vitro ADME", "details": "read-out: Human Fu (plasma)", "description": "as §1"}, "[4]": {"assay": "Fraction unbound in rat plasma", "format": "in vitro ADME", "details": "read-out: Rat Fu (plasma)", "description": "as §1"}, "P450 3A4": {"target": "P450 3A4 (Homo sapiens, UniProt P08684)", "sequence (P08684 whole entry)": "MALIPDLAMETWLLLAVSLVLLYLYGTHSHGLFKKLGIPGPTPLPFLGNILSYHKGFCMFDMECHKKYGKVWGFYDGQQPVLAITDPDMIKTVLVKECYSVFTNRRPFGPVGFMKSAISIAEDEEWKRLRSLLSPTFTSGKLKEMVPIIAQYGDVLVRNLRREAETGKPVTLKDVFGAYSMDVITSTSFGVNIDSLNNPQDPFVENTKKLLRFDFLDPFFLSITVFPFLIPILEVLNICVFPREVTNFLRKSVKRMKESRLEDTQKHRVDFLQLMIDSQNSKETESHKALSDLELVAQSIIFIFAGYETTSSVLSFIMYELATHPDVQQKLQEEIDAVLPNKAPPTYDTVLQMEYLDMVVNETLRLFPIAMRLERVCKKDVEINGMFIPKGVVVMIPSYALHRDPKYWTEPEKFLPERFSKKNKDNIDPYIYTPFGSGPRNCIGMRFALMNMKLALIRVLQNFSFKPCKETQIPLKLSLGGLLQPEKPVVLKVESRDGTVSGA", "assay": "P450 3A4 inhibition", "format": "in vitro ADME", "description": "as §1"}, "MDCK-MDR1": {"test_system": "MDCK-MDR1", "assay": "MDCK-MDR1 permeability / efflux", "format": "in vitro ADME", "details": "efflux ratio", "description": "as §1"}, "[5]": {"assay": "MDCK-MDR1 permeability / efflux", "format": "in vitro ADME", "details": "dog, MDCK-MDR1", "description": "as §1"}, "Dog intrinsic clearance": {"assay": "Dog intrinsic clearance", "format": "in vitro ADME", "description": "as §1"}}, "data": [{"smiles": "Cc1c(N2CCc3nc(C4(F)CC4)sc3C2)nc2nn(C)c(=O)n2c1C", "note": "[Compound 70, 7-(2-(1-fluorocyclopropyl)-6,7-dihydrothiazolo[5,4-c]pyridin-5(4H)-yl)-2,5,6-trimethyl-[1,2,4]triazolo[4,3-a]pyrimidin-3(2H)-one]", "values": [{"measurement": "percent reversal of amphetamine-induced hyperlocomotion", "setting": "male Sprague-Dawley rats", "value": 61.1, "unit": "%"}, {"measurement": "inhibition at 10 µM", "setting": "human muscarinic 2", "value": 58, "unit": "%"}, {"measurement": "fraction unbound", "setting": "[1]", "value": 0.232}, {"measurement": "CLint scaled", "setting": "[2]", "value": 9, "unit": "mL/min/kg"}, {"measurement": "fraction unbound", "setting": "[3]", "value": 0.217}, {"measurement": "fraction unbound", "setting": "[4]", "value": 0.267}, {"measurement": "IC50", "setting": "P450 3A4", "value": "> 30", "unit": "µM"}, {"measurement": "MDCK-MDR1 ER", "setting": "MDCK-MDR1", "value": "0.9 (Papp A→ B:"}, {"measurement": "Papp A→B", "setting": "[5]", "value": 36.7, "unit": "×10⁻⁶ cm/s"}, {"measurement": "CLint scaled", "setting": "Dog intrinsic clearance", "value": 17, "unit": "mL/min/kg"}]}]}
